Measured values: patent US20070128217A1 (priority 2003, published 2007)

Experiments:
[1] = system: rabbit serum obtained by immunizing a rabbit with the SARS-CoV strain Frankfurt 1; assay type: binding; design: Binding of a rabbit serum to linear peptides / Binding of a rabbit serum to looped peptides / Rabbit serum linear peptides / Rabbit serum looped peptides / Binding of a rabbit serum to linear peptides of protein N of SARS-CoV Urbani (Rabbit serum linear peptides) / Binding of a rabbit serum to looped/cyclic peptides of protein N of SARS-CoV Urbani (Rabbit serum looped peptides): unit not given here
[2] = system: antibodies in sera from SARS patients (sera 1a, 1b, 2, 6, 37, 62, London, SARS-yellow, SARS-green); assay type: binding, human; design: Binding of serum 6 to linear peptides of protein X1 of SARS-CoV Urbani / Binding of serum 37 to linear peptides of protein X1 of SARS-CoV Urbani / Binding of serum 6 to looped/cyclic peptide (PEPSCAN-ELISA) / Binding of serum 37 to looped/cyclic peptide (PEPSCAN-ELISA) / Binding of serum 37 to looped/cyclic peptides of protein X1 of SARS-CoV Urbani / Binding of serum 6 to linear peptides of protein X2 / Binding of serum 37 to linear peptides of protein X2 / Binding of serum 37 to looped/cyclic peptides of protein X2 of SARS-CoV Urbani / Binding of serum 6 to linear peptides of protein M of SARS-CoV Urbani / Binding of serum 37 to linear peptides of protein M of SARS-CoV Urbani / Binding of serum 6 to looped/cyclic peptides of protein M of SARS-CoV Urbani / Binding of serum 37 to looped/cyclic peptides of protein M of SARS-CoV Urbani / Binding of serum 6 to linear peptides of protein X3 of SARS-CoV Urbani / Binding of serum 37 to linear peptides of protein X3 of SARS-CoV Urbani / Binding of serum 37 to looped/cyclic peptides of protein X3 of SARS-CoV Urbani / Binding of serum 6 to linear peptides of protein X4 of SARS-CoV Urbani / Binding of serum 37 to linear peptides of protein X4 of SARS-CoV Urbani / Binding of serum 37 to looped/cyclic peptides of protein X4 of SARS-CoV Urbani / Binding of serum 6 to linear peptides of protein X5 of SARS-CoV Urbani / Binding of serum 37 to linear peptides of protein X5 of SARS-CoV Urbani / Binding of serum 37 to looped/cyclic peptides of protein X5 of SARS-CoV Urbani / Binding of serum 6 to linear peptides of protein N of SARS-CoV Urbani / Binding of serum 37 to linear peptides of protein N of SARS-CoV Urbani / Binding of serum 6 to linear peptide (PEPSCAN-ELISA) / Binding of serum 1a to looped/cyclic peptides of protein N of SARS-CoV Urbani / Binding of serum 1b to looped/cyclic peptides of protein N of SARS-CoV Urbani / Binding of serum 2 to looped/cyclic peptides of protein N of SARS-CoV Urbani / Binding of serum 6 to looped/cyclic peptides of protein N of SARS-CoV Urbani / Binding of serum 37 to looped/cyclic peptides of protein N of SARS-CoV Urbani / Binding of serum 62 to looped/cyclic peptides of protein N of SARS-CoV Urbani / Binding of serum London to looped/cyclic peptides of protein N of SARS-CoV Urbani / Binding of serum SARS-green to looped/cyclic peptides of protein N of SARS-CoV Urbani: unit not given here
[3] = system: control sera (pooled serum of ten healthy LUMC hospital workers; commercial negative donor pooled serum from the Dutch bloodbank); assay type: binding, human; design: Binding of Control serum LUMC to linear peptides / Binding of Control serum Blood-bank to linear peptides / Binding of Control serum LUMC to looped peptides / Binding of Control Serum Blood-Bank to Looped peptides / Binding of Control serum LUMC to linear peptides of the protein M of SARS-CoV Urbani / Binding of Control serum Blood-bank to linear peptides of the protein M of SARS-CoV Urbani / Binding of Control serum LUMC to looped peptides of the protein M of SARS-CoV Urbani / Binding of Control Serum Blood-Bank to Looped peptides of the protein M of SARS-CoV Urbani: unit not given here

NILLNVPLRGTIVTR
Rabbit serum linear peptides [1]: 0.5
Rabbit serum looped peptides [1]: 0.4
Binding of serum 1a to linear peptides of protein M of SARS-CoV Urbani [2]: 0.7
Binding of serum 1b to linear peptides of protein M of SARS-CoV Urbani [2]: 0.5
Binding of serum 2 to linear peptides of protein M of SARS-CoV Urbani [2]: 0.8
Binding of serum 6 to linear peptides of protein M of SARS-CoV Urbani [2]: 0.4
Binding of serum 37 to linear peptides of protein M of SARS-CoV Urbani [2]: 0.6
Binding of serum 62 to linear peptides of protein M of SARS-CoV Urbani [2]: 0.7
Binding of serum London to linear peptides of protein M of SARS-CoV Urbani [2]: 0.4
Binding of serum SARS-green to linear peptides of protein M of SARS-CoV Urbani [2]: 0.3
Binding of serum SARS-yellow to linear peptides of protein M of SARS-CoV Urbani [2]: 0.1
Recognition of the peptide by sera of SARS-CoV infected individuals, and form (linear, looped/cyclic) in which it is recognized [2]: recognized in looped/cyclic form
Binding of Control Serum Blood-Bank to Looped peptides of the protein M of SARS-CoV Urbani [3]: 0.8
Binding of Control serum Blood-bank to linear peptides of the protein M of SARS-CoV Urbani [3]: 0.8
Binding of Control serum LUMC to linear peptides of the protein M of SARS-CoV Urbani [3]: 0.3
Binding of Control serum LUMC to looped peptides of the protein M of SARS-CoV Urbani [3]: 0.7

NLLLLFVTIYSHLLL
Binding of a rabbit serum to linear peptides [1]: 0.2
Binding of a rabbit serum to looped peptides [1]: 0.6
Binding of serum 1a to linear peptides of protein X1 of SARS-CoV Urbani [2]: 0.7
Binding of serum 1a to looped/cyclic peptide (PEPSCAN-ELISA) [2]: 0.5
Binding of serum 1b to linear peptides of protein X1 of SARS-CoV Urbani [2]: 0.5
Binding of serum 1b to looped/cyclic peptide (PEPSCAN-ELISA) [2]: 0.4
Binding of serum 2 to linear peptides of protein X1 of SARS-CoV Urbani [2]: 0.5
Binding of serum 2 to looped/cyclic peptide (PEPSCAN-ELISA) [2]: 0.4
Binding of serum 6 to linear peptides of protein X1 of SARS-CoV Urbani [2]: 0.4
Binding of serum 6 to looped/cyclic peptide (PEPSCAN-ELISA) [2]: 0.2
Binding of serum 37 to linear peptides of protein X1 of SARS-CoV Urbani [2]: 0.5
Binding of serum 37 to looped/cyclic peptide (PEPSCAN-ELISA) [2]: 0.4
Binding of serum 62 to linear peptides of protein X1 of SARS-CoV Urbani [2]: 0.4
Binding of serum 62 to looped/cyclic peptide (PEPSCAN-ELISA) [2]: 0.5
Binding of serum London to linear peptides of protein X1 of SARS-CoV Urbani [2]: 0.2
Binding of serum London to looped/cyclic peptide (PEPSCAN-ELISA) [2]: 0.2
Binding of serum SARS-green to linear peptides of protein X1 of SARS-CoV Urbani [2]: 0.1
Binding of serum SARS-green to looped/cyclic peptide (PEPSCAN-ELISA) [2]: 0.2
Binding of serum SARS-yellow to linear peptides of protein X1 of SARS-CoV Urbani [2]: 0.3
Binding of serum SARS-yellow to looped/cyclic peptide (PEPSCAN-ELISA) [2]: 0.4
Binding of Control Serum Blood-Bank to Looped peptides [3]: 0.5
Binding of Control serum Blood-bank to linear peptides [3]: 0.4
Binding of Control serum LUMC to linear peptides [3]: 0.5
Binding of Control serum LUMC to looped peptides [3]: 0.6

NLVIGFLFLAWIMLL
Rabbit serum linear peptides [1]: 0.2
Rabbit serum looped peptides [1]: 0.2
Binding of serum 1a to linear peptides of protein M of SARS-CoV Urbani [2]: 0.7
Binding of serum 1a to looped/cyclic peptides of protein M of SARS-CoV Urbani [2]: 0.7
Binding of serum 1b to linear peptides of protein M of SARS-CoV Urbani [2]: 0.5
Binding of serum 1b to looped/cyclic peptides of protein M of SARS-CoV Urbani [2]: 0.6
Binding of serum 2 to linear peptides of protein M of SARS-CoV Urbani [2]: 0.5
Binding of serum 2 to looped/cyclic peptides of protein M of SARS-CoV Urbani [2]: 0.5
Binding of serum 6 to linear peptides of protein M of SARS-CoV Urbani [2]: 0.3
Binding of serum 6 to looped/cyclic peptides of protein M of SARS-CoV Urbani [2]: 0.6
Binding of serum 37 to linear peptides of protein M of SARS-CoV Urbani [2]: 0.6
Binding of serum 37 to looped/cyclic peptides of protein M of SARS-CoV Urbani [2]: 0.6
Binding of serum 62 to linear peptides of protein M of SARS-CoV Urbani [2]: 0.7
Binding of serum 62 to looped/cyclic peptides of protein M of SARS-CoV Urbani [2]: 0.7
Binding of serum London to linear peptides of protein M of SARS-CoV Urbani [2]: 0.3
Binding of serum London to looped/cyclic peptides of protein M of SARS-CoV Urbani [2]: 0.3
Binding of serum SARS-green to linear peptides of protein M of SARS-CoV Urbani [2]: 0.2
Binding of serum SARS-green to looped/cyclic peptides of protein M of SARS-CoV Urbani [2]: 0.3
Binding of serum SARS-yellow to linear peptides of protein M of SARS-CoV Urbani [2]: 0.0
Binding of serum SARS-yellow to looped/cyclic peptides of protein M of SARS-CoV Urbani [2]: 0.5
Binding of Control Serum Blood-Bank to Looped peptides of the protein M of SARS-CoV Urbani [3]: 0.6
Binding of Control serum Blood-bank to linear peptides of the protein M of SARS-CoV Urbani [3]: 0.5
Binding of Control serum LUMC to linear peptides of the protein M of SARS-CoV Urbani [3]: 0.3
Binding of Control serum LUMC to looped peptides of the protein M of SARS-CoV Urbani [3]: 0.8
